Experimental data published in patent US20230082611A1, “COMPOSITIONS AND METHODS FOR THE TREATMENT OF RESPIRATORY SYNCYTIAL VIRUS” (Cidara Therapeutics, Inc., priority 2019, published 2023).
Read-outs that look alike come from different tables or passages of the source.

Legend:
HEp-2 cells = assay: Inherent cytotoxicity run in parallel with the CPE assay (CellTiter-Glo); format: cell-based; settings: 4 days post treatment, DMSO, value in %
Procedure: (§1) In parallel with the CPE assay, the inherent cytotoxicity of several test articles was also determined. Briefly, ten four-fold serial dilutions of each TA starting at 10 μM were prepared in triplicate for inoculation with HEp-2 cells in 96-well culture plates. The cell viability was determined four days post treatment using CellTiter-Glo kit.

RSV Long strain = assay: RSV microneutralization assay, RSV Long strain; format: cell-based; settings: read-out: RSV Long EC50
Procedure: (§2) Duplicate 10-fold serial dilutions of compound in DMEM with 2% HI-FBS, 1× P/S, 2 mM L-Gln were prepared in 96-well tissue culture plates at 60 μL/well. The RSV Long strain (RetroVirox, San Diego), RSV A2 strain (Virapur, San Diego), RSV B1 strain (RetroVirox, San Diego), or RSV strain CH18537 (RetroVirox, San Diego), were diluted in DMEM with 2% HI-FBS, 1× P/S, 2 mM L-Gln and 60 μL/well added to 60 μL compound for a multiplicity of infection (MOI) of 0.002 (Long, A2), 0.003 (B1), or 0.004 (CH18537). Virus only (no drug) and cells only (no virus, no drug) controls were included on each plate. The compound-virus mix was incubated for 1 h at 37° C. and 5% CO2. After 1 h, medium was removed from HEp-2 cells by aspiration and wells washed once with 100 μL/well 1×PBS pH 7.4 (Fisher cat #MT21040CM). The compound-virus mix (100 μL/well) was added to the cells and incubated for 1 h at 37° C. and 5% CO2 prior to addition of 100 μL/well of DMEM with 2% HI-FBS, 1× P/S, 2 mM L-Gln (200 μL final vol) and incubation at 37° C. and 5% CO2. On day 6 post infection, supernatant was aspirated and cells fixed with 100 μL/well ice-cold 80% acetone in 1×PBS for 20 min at 4° C. The acetone was aspirated and plates air-dried for 20 min at room temperature. The plates were washed 3× with 200 μL/well 1×PBS, 0.05% Tween-20 (PBST) and blocked with 200 μL/well 5% non-fat dry milk (Fisher cat #50-195-952) in PBST for 1 h with shaking (500 rpm) on an orbital plate shaker. The blocking solution was discarded and cells incubated with 100 μL/well mouse anti-F protein antibody (MilliporeSigma cat #MAB8599) diluted 1:2,000 in diluent (blocking solution diluted 1:1 in 1×PBS pH 7.4) for 2 h with shaking. Plates were washed 5× with 300 μL/well PBST and incubated with 100 μL/well HRP-conjugated goat anti-mouse IgG antibody (SouthernBiotech cat #1030-05) diluted 1:1,000 in diluent for 1 h with shaking. Plates were washed 5× with 300 μL/well PBST and incubated with 100 μL/well TMB substrate (Fisher cat #BDB555214) for ˜5 min. The reaction was stopped with 100 μL/well 1N H2SO4. Absorbance was read at 450 nm with an EnSpire multimode plate reader (PerkinElmer). The mean A450 for the cells only control was subtracted from all A450 values, and the percent virus neutralisation calculated for each compound concentration, relative to the virus only control.

[1] = tested on: RSV (Respiratory Syncytial Virus strain A2); assay: RSV cytopathic effects (CPE) assay; format: cell-based; settings: human respiratory syncytial virus
Procedure: The activity of anti-RSV compounds and conjugates was determined using an in vitro cell-based assay following a standard protocol in the field. Briefly, ten four-fold serial dilutions of each test article (TA) starting at 10 μM were prepared in duplicate and incubated with RSV (Respiratory Syncytial Virus strain A2) at a multiplicity of infection (MOI) of 0.01, for one hour. The RSV-TA mix was then added to HEp-2 cells seeded in 96-well plates and incubated for one hour.

[2] = Inherent cytotoxicity run in parallel with the CPE assay (CellTiter-Glo); format: cell-based; settings: human, HEp-2 cells, 4 days post treatment
Procedure: as §1

RSV A2 strain = assay: RSV microneutralization assay, RSV A2 strain; format: cell-based; settings: MOI 0.002, HEp-2 cells, day 6
Procedure: as §2, with “HEp-2 cells (ATCC #CCL-23) were seeded at 5E4/well/200 μL in DMEM (Fisher cat #11965118) supplemented with 10% heat-inactivated (HI) fetal bovine serum (HI-FBS; Fisher cat #10-082-147), 1× penicillin-streptomycin (P/S, 100 μg/mL; Fisher cat #MT30002C), and 1× L-glutamine (L-Gln, 2 mM; Fisher cat #25030-164) in 96-well tissue culture treated plates (Fisher cat #08-772-17) and incubated overnight at 37° C. and 5% CO2. Duplicate” for “Duplicate”

RSV B1 strain = assay: RSV microneutralization assay, RSV B1 strain; format: cell-based; settings: human respiratory syncytial virus; MOI 0.003, HEp-2 cells, day 6
Procedure: (§3) HEp-2 cells (ATCC #CCL-23) were seeded at 5E4/well/200 μL in DMEM (Fisher cat #11965118) supplemented with 10% heat-inactivated (HI) fetal bovine serum (HI-FBS; Fisher cat #10-082-147), 1× penicillin-streptomycin (P/S, 100 μg/mL; Fisher cat #MT30002C), and 1× L-glutamine (L-Gln, 2 mM; Fisher cat #25030-164) in 96-well tissue culture treated plates (Fisher cat #08-772-17) and incubated overnight at 37° C. and 5% CO2. Duplicate 10-fold serial dilutions of compound in DMEM with 2% HI-FBS, 1× P/S, 2 mM L-Gln were prepared in 96-well tissue culture plates at 60 μL/well. The RSV Long strain (RetroVirox, San Diego), RSV A2 strain (Virapur, San Diego), RSV B1 strain (RetroVirox, San Diego), or RSV strain CH18537 (RetroVirox, San Diego), were diluted in DMEM with 2% HI-FBS, 1× P/S, 2 mM L-Gln and 60 μL/well added to 60 μL compound for a multiplicity of infection (MOI) of 0.002 (Long, A2), 0.003 (B1), or 0.004 (CH18537). Virus only (no drug) and cells only (no virus, no drug) controls were included on each plate. The compound-virus mix was incubated for 1 h at 37° C. and 5% CO2. […] Absorbance was read at 450 nm with an EnSpire multimode plate reader (PerkinElmer). The mean A450 for the cells only control was subtracted from all A450 values, and the percent virus neutralisation calculated for each compound concentration, relative to the virus only control.

RSV strain CH18537 = assay: RSV microneutralization assay, RSV strain CH18537; format: cell-based; settings: human respiratory syncytial virus; MOI 0.004, HEp-2 cells, day 6
Procedure: as §3

RSV = settings: prophylactic use; cited from earlier work
[3] = human respiratory syncytial virus, HEp-2, […]
[4] = human respiratory syncytial virus, MOI 0.002, HEp-2 cells, day 6
[5] = 96 h, RSV A2, MOI 0.01, HEp-2 cells, day 4, crystal violet, average of duplicate wells, read-out: EC50
[6] = human respiratory syncytial virus

Compound: C[S+](C)[O-] [DMSO]
- CC50 (HEp-2 cells): 1.17%

Compound: C#CCOCCOCCOCCOCCNCC1CN(c2nc3cc([C@@H]4CCCCN4C(=O)c4cc(Cl)ccc4NS(C)(=O)=O)nn3cc2C)C1 [Int-01]
- EC50 (RSV Long strain; [3]): 98 nM

Compound: C#CCOCCOCCOCCOCCO[C@H]1CN(c2nc3cc([C@@H]4CCCCN4C(=O)c4cc(Cl)ccc4NS(C)(=O)=O)nn3cc2C)C[C@H]1N [Int-02]
- EC50 (RSV Long strain; [4]): 110 nM

Compound: C#CCOCCOCCOCCOCCN[C@@H]1CN(c2nc3cc([C@@H]4CCCCN4C(=O)c4cc(Cl)ccc4NS(C)(=O)=O)nn3cc2C)C[C@@H]1O [Int-03]
- EC50 (RSV Long strain; [4]): > 1000 nM

Compound: C#CCOCCOCCOCCOCCO[C@@H]1CN(c2nc3cc([C@@H]4CCCCN4C(=O)c4cc(Cl)ccc4NS(C)(=O)=O)nn3cc2C)C[C@H]1N [Int-04]
- EC50 (RSV Long strain; [4]): > 1000 nM

Compound: C#CCOCCOCCOCCOCCOCCOCCOCCCCN[C@H]1CCN(c2nc3cc([C@@H]4CCCCN4C(=O)c4cc(Cl)ccc4NS(C)(=O)=O)nn3cc2C)C1 [Int-05]
- EC50 (RSV Long strain; [4]): > 1000 nM

Compound: C#CCOCCOCCNC(=N)N[C@H]1CCN(c2nc3cc([C@@H]4CCCCN4C(=O)c4cc(Cl)ccc4NS(C)(=O)=O)nn3cc2C)C1 [Int-6]
- EC50 [1, 5]: 2200 nM

Compound: C#CCOCCOCCOCCOCCN[C@H]1CCN(c2nc3cc(C4CCCCN4C(=O)c4cc(Cl)ccc4NS(C)(=O)=O)nn3cc2C)C1 (some centres unmarked) [Int-7]
- EC50 [1, 5]: 0.353 nM
- CC50 at 4 days [2]: 10400 nM
- EC50 (RSV Long strain; [4]): 18 nM

Compound: C#CCOCCOCCOCCOCCOCCOCCOCCOCCN[C@H]1CCN(c2nc3cc([C@@H]4CCCCN4C(=O)c4cc(Cl)ccc4NS(C)(=O)=O)nn3cc2C)C1 [Int-8]
- EC50 ([1]; HEp-2, 96 h): 2.29 nM
- EC50 (RSV Long strain; [3]): 43 nM

Compound: C#CCOCCOCCOCCOCCC(=O)N[C@H]1CCN(c2nc3cc([C@@H]4CCCCN4C(=O)c4cc(Cl)ccc4NS(C)(=O)=O)nn3cc2C)C1 [Int-9]
- EC50 [1, 5]: 272 nM
- CC50 at 4 days [2]: 49700 nM
- EC50 (RSV Long strain; [4]): 1500 nM

Compound: C#CCOCCOCCOCCOCCN1CCN(CCCN[C@H]2CCN(c3nc4cc([C@H]5CCCCN5C(=O)c5cc(Cl)ccc5NS(C)(=O)=O)nn4cc3C)C2)CC1 [Int-10]
- EC50 (RSV Long strain; [3]): 97 nM

Compound: C#CCOCCOCCOCCOCCC(=O)N[C@@H](CS(=O)(=O)O)C(=O)N1CCN(CCCN[C@H]2CCN(c3nc4cc([C@@H]5CCCCN5C(=O)c5ccc(Cl)cc5NS(C)(=O)=O)nn4cc3C)C2)CC1 [Int-23]
- EC50 (RSV Long strain; [4]): > 1000 nM

Compound: C#CCOCCOCCOCCOCCN1CCN(CCCCN[C@H]2CCN(c3nc4cc([C@@H]5CCCCN5C(=O)c5cc(Cl)ccc5NS(C)(=O)=O)nn4cc3C)C2)CC1 [Int-24]
- EC50 (RSV Long strain; [4]): > 1000 nM

Compound: C#CCOCCOCCOCCOCCOCCOCCOCCOCCNC(=O)CN(CC(=O)O)C(=O)CCCCN[C@H]1CCN(c2nc3cc([C@@H]4CCCCN4C(=O)c4cc(Cl)ccc4NS(C)(=O)=O)nn3cc2C)C1 [Int-25]
- EC50 (RSV Long strain; [4]): 92 nM

Compound: C#CCOCCOCCOCCOCCOCCOCCOCCOCCNC(=O)CN(CC(=O)NCCOCCOCCOCCOCCOCCOCCOCCOCCOCCOCCOCCOC)C(=O)CCCCN[C@H]1CCN(c2nc3cc(C4CCCCN4C(=O)c4cc(Cl)ccc4NS(C)(=O)=O)nn3cc2C)C1 (some centres unmarked) [Int-26]
- EC50 (RSV Long strain; [4]): 170 nM

Compound: C#CCOCCOCCOCCOCCC(=O)N(CC(=O)NCCOCCOCCOCCOCCOCCOCCOCCOCCOCCOCCOCCOC)CC(=O)NCCn1cc(COCCOCCOCCOCCOCCOCCOCCCCN[C@H]2CCN(c3nc4cc([C@@H]5CCCCN5C(=O)c5cc(Cl)ccc5NS(C)(=O)=O)nn4cc3C)C2)nn1 [Int-27]
- EC50 (RSV Long strain; [4]): 200 nM

Compound: C#CCOCCOCCOCCOCCC(=O)NCCCCn1c(CN2C(=O)C3(CCN(C(=O)OC(C)C)CC3)c3ccncc32)nc2cc(Cl)ccc21 [Int-34]
- EC50 (RSV Long strain; [4]): 0.13 nM

Compound: C#CCOCCOCCOCCOCCC(=O)NCCCCn1c(CN2C(=O)C3(CCN(C(=O)OC(C)(C)C)CC3)c3ccncc32)nc2cc(Cl)ccc21 [Int-35]
- EC50 (RSV A2 strain; [6]): 0.74 nM
- EC50 (RSV Long strain; [4]): 0.34 nM

Compound: C#CCOCCOCCOCCOCCn1c(CN2C(=O)C3(CCN(C(=O)OC(C)(C)C)CC3)c3ccncc32)nc2cc(Cl)ccc21 [Int-41]
- EC50 (RSV A2 strain; [6]): 15 nM
- EC50 (RSV Long strain; [4]): 14 nM
- EC50 (RSV B1 strain): 3.6 nM

Compound: Cc1cn2nc([C@@H]3CCCCN3C(=O)c3cc(Cl)ccc3NS(C)(=O)=O)cc2nc1N1CC[C@H](N)C1 [Presatovir, reference compound]
- EC50 (RSV strain CH18537): 0.32 nM
- EC50 [1, 5]: 0.0769 nM
- EC50 (RSV A2 strain; [6]): 0.014 nM
- EC50 (RSV Long strain; [4]): 0.0084 nM
- EC50 (RSV B1 strain): 0.82 nM

Compound: NC(=O)c1ncn([C@@H]2O[C@H](CO)[C@@H](O)[C@H]2O)n1 [Ribavirin, reference compound]
- EC50 [1, 5]: 25800 nM
- CC50 at 4 days [2]: 174000 nM

Compound: Cc1nnnn1N=Cc1ccc(O)c(C(c2ccc(O)cc2)c2cc(C=Nn3nnnc3C)ccc2O)c1 (centres unmarked) [VP14637, MDT 637, reference compound]
- EC50 (RSV Long strain; [4]): 0.09 nM

Compound: Palivizumab
- EC50 (RSV A2 strain): 21 nM
- effective at reducing hospitalization rates (RSV): 60%
- EC50 (RSV Long strain; MOI 0.002, HEp-2 cells, day 6): 17 nM
